In patent US9452980B2, “Substituted benzamides” (Hoffmann-La Roche Inc., priority 2009, dated 2016):
Where a name gives a salt, the structure may show the parent alone. Read-outs that look alike come from different tables or passages of the source.

Legend:
[1] = target: mouse TAAR1 (Mus musculus (Mouse), UniProt Q923Y8); test: Radioligand binding assay on mouse TAAR1; settings: read-out: Ki (μM) mouse
Outline: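 Membranes were from HEK293 cells stably expressing mouse TAAR1. Compounds from 10 pM to 10 μM, in duplicate, competed with [3H]-(S)-4-[(ethyl-phenyl-amino)-methyl]-4,5-dihydro-oxazol-2-ylamine for 1 h at 4 °C. Nonspecific binding was defined with 10 μM unlabelled ligand, and bound radioactivity was read by filtration and scintillation.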

[2] = target: rat TAAR1 (Rattus norvegicus (Rat), UniProt Q923Y9); test: Radioligand binding assay on rat TAAR1; settings: read-out: Ki (μM) rat
Sequence of rat TAAR1 (Q923Y9 whole entry): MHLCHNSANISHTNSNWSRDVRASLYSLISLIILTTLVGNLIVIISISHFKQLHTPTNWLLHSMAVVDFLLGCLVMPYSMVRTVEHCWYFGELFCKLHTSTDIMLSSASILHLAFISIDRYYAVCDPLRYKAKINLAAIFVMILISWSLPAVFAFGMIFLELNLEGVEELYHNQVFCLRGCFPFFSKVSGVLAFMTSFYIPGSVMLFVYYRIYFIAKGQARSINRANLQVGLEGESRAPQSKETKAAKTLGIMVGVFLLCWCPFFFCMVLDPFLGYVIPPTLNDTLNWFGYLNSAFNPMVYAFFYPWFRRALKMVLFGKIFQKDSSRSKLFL
Outline: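 Membranes from HEK293 cells stably expressing rat TAAR1, with Kd checked per batch by saturation. Competition with ³H-(S)-4-[(ethyl-phenyl-amino)-methyl]-4,5-dihydro-oxazol-2-ylamine, compounds 10 pM–10 μM in duplicate, 1 hr at 4 °C. Filtration then scintillation counting; nonspecific binding defined with 10 μM unlabeled ligand.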

[3] = mouse TAAR1, HEK-293 membranes, first value of cell mouse/rat
[4] = rat TAAR1, HEK-293 membranes, second value of cell mouse/rat

Sequence of mouse TAAR1 (Q923Y8 whole entry): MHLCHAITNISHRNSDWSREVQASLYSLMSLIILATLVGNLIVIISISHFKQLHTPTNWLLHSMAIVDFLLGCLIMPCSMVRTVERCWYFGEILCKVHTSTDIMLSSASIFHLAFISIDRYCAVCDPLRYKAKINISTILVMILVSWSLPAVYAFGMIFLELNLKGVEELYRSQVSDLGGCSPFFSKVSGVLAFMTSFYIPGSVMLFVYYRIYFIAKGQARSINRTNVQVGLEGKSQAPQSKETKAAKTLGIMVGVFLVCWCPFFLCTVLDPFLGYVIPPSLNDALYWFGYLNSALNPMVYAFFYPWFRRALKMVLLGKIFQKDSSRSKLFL

Ki [1, 3] | Ki [2, 4] | Structure (SMILES) | Ki [1] | Ki [2]
0.0573 µM | 0.0121 µM | O=C(Nc1ccc(C2CCNC2)cc1)c1cnc(Cl)cn1 (racemic) [Example 163, (RS)-5-Chloro-N-(4-(pyrrolidin-3-yl)phenyl)pyrazine-2-carboxamide hydrochloride] |  | 
0.0871 µM | 0.0121 µM | O=C(Nc1ccc(CCC2CCCN2)cc1)c1cnc(Cl)cn1 (racemic) [Example 164, (RS)-5-Chloro-N-(4-(2-(pyrrolidin-2-yl)ethyl)phenyl)pyrazine-2-carboxamide hydrochloride] |  | 
0.126 µM | 0.0411 µM | N#Cc1ccc(C(=O)Nc2ccc(C3CCNC3)cc2)nc1 (racemic) [Example 165, (RS)-5-Cyano-N-(4-(pyrrolidin-3-yl)phenyl)picolinamide hydrochloride] |  | 
0.113 µM | 0.0077 µM | CCOc1ccc(C(=O)Nc2ccc(CCC3CCCN3)cc2)nc1 (racemic) [Example 172, (RS)-5-Ethoxy-N-(4-(2-(pyrrolidin-2-yl)ethyl)phenyl)picolinamide hydrochloride] |  | 
0.824 µM | 0.0218 µM | O=C(Nc1ccc(CCC2CCCCN2)cc1)c1ccc(Cl)nc1 (racemic) [Example 173, (RS)-6-Chloro-N-(4-(2-(piperidin-2-yl)ethyl)phenyl)nicotinamide hydrochloride] |  | 
0.437 µM | 0.0159 µM | O=C(Nc1ccc(CCC2CCCCN2)cc1)c1cnc(Cl)cn1 (racemic) [Example 174, (RS)-5-Chloro-N-(4-(2-(piperidin-2-yl)ethyl)phenyl)pyrazine-2-carboxamide hydrochloride] |  | 
0.0473 µM | 0.0027 µM | O=C(Nc1ccc(CCC2CCCCN2)cc1)c1ccc(C(F)(F)F)cc1 (racemic) [Example 175, (RS)—N-(4-(2-(Piperidin-2-yl)ethyl)phenyl)-4-(trifluoromethyl)benzamide hydrochloride] |  | 
0.114 µM | 0.0067 µM | C#Cc1ccc(C(=O)Nc2ccc(CCC3CCCCN3)cc2)cc1 (racemic) [Example 177, (RS)-4-Ethynyl-N-(4-(2-(piperidin-2-yl)ethyl)phenyl)benzamide hydrochloride] |  | 
0.0008 µM | 0.0022 µM | CCOc1ccc(C(=O)Nc2ccc(C3CCCNC3)cc2)nc1 (racemic) [Example 179, (RS)-5-Ethoxy-pyridine-2-carboxylic acid (4-piperidin-3-yl-phenyl)-amide; hydrochloride] |  | 
0.0507 µM | 0.0131 µM | O=C(Nc1ccc(C2CCCNC2)cc1)c1ccc(F)cn1 (racemic) [Example 180, (RS)-5-Fluoro-N-(4-(piperidin-3-yl)phenyl)picolinamide hydrochloride] |  | 
0.0333 µM | 0.0026 µM | Cc1ccc(C(=O)Nc2ccc(C3CCCNC3)cc2)cc1 (racemic) [Example 185, (RS)-4-Methyl-N-(4-(piperidin-3-yl)phenyl)benzamide hydrochloride] |  | 
0.0343 µM | 0.0016 µM | Cc1ccc(C(=O)Nc2ccc(C3CNCCO3)cc2)cc1 (racemic) [Example 189, (RS)-4-Methyl-N-(4-(morpholin-2-yl)phenyl)benzamide hydrochloride] |  | 
0.0501 µM | 0.0021 µM | COc1ccc(C(=O)Nc2ccc(C3CNCCO3)cc2)cc1 (racemic) [Example 190, (RS)-4-Methoxy-N-(4-(morpholin-2-yl)phenyl)benzamide hydrochloride] |  | 
0.011 µM | 0.0074 µM | O=C(Nc1ccc(C2CCCNC2)cc1)c1ccc(OCC(F)(F)F)cn1 (racemic) [Example 191, (RS)—N-(4-(Piperidin-3-yl)phenyl)-5-(2,2,2-trifluoroethoxy)picolinamide hydrochloride] |  | 
0.0982 µM | 0.005 µM | N#Cc1ccc(C(=O)Nc2ccc(C3CNCCO3)cc2)cn1 (racemic) [Example 194, (RS)-2-(4-(6-cyanonicotinamido)phenyl)morpholin-4-ium chloride] |  | 
0.0147 µM | 0.0028 µM | CCc1ccc(C(=O)Nc2ccc(C3CNCCO3)cc2)cc1 (racemic) [Example 198, (RS)-4-Ethyl-N-(4-(morpholin-2-yl)phenyl)benzamide hydrochloride] |  | 
1.16 µM | 0.238 µM | O=C(Nc1ccc(C2CNCCO2)cc1)c1ccc(O)cc1 (racemic) [Example 199, (RS)-4-Hydroxy-N-(4-(morpholin-2-yl)phenyl)benzamide hydrochloride] |  | 
0.0026 µM | 0.0011 µM | O=C(Nc1ccc(C2CNCCO2)cc1)c1ccc(Oc2ccc(Cl)cc2)cc1 (racemic) [Example 206, (RS)-4-(4-Chlorophenoxy)-N-(4-(morpholin-2-yl)phenyl)benzamide hydrochloride] |  | 
0.0436 µM | 0.0062 µM | O=C(Nc1ccc(C2CNCCO2)cc1)c1cncc(Cl)c1 (racemic) [Example 210, (RS)-5-chloro-N-(4-(morpholin-2-yl)phenyl)nicotinamide hydrochloride] |  | 
0.004 µM | 0.0009 µM | COC(=O)c1ccc(COc2ccc(C(=O)Nc3ccc(C4CNCCO4)cc3)cc2)cc1 (racemic) [Example 211, (RS)-Methyl 4-((4-(4-(morpholin-2-yl)phenylcarbamoyl)phenoxy)methyl)benzoate hydrochloride] |  | 
2.5 µM | 0.296 µM | O=C(O)c1ccc(COc2ccc(C(=O)Nc3ccc(C4CNCCO4)cc3)cc2)cc1 (racemic) [Example 212, (RS)-4-((4-(4-(morpholin-2-yl)phenylcarbamoyl)phenoxy)methyl)benzoic acid hydrochloride] |  | 

Structure (SMILES) | Ki [1, 3] | Ki [2, 4] | Ki [1] | Ki [2]
O=C(Nc1ccc(CCC2CCCN2)cc1)c1ccc(F)cn1 (racemic) [Example 166, (RS)-5-Fluoro-N-(4-(2-(pyrrolidin-2-yl)ethyl)phenyl)picolinamide hydrochloride] | 0.394 µM | 0.0212 µM |  | 
O=C(Nc1ccc(CCC2CCCCN2)cc1)c1ccc(Cl)cc1 (racemic) [Example 169, (RS)-4-Chloro-N-(4-(2-(piperidin-2-yl)ethyl)phenyl)benzamide hydrochloride] | 0.0607 µM | 0.0027 µM |  | 
O=C(Nc1ccc(CCC2CCCCN2)cc1)c1ccc(F)cc1 (racemic) [Example 170, (RS)-4-Fluoro-N-(4-(2-(piperidin-2-yl)ethyl)phenyl)benzamide hydrochloride] | 0.234 µM | 0.0158 µM |  | 
O=C(Nc1ccc(CCC2CCCCN2)cc1)c1ccc(Cl)cn1 (racemic) [Example 171, (RS)-5-Chloro-N-(4-(2-(piperidin-2-yl)ethyl)phenyl)picolinamide hydrochloride] | 0.198 µM | 0.0101 µM |  | 
O=C(Nc1ccc(CCC2CCCCN2)cc1)c1ccc(Cl)c(Cl)c1 (racemic) [Example 176, (RS)-3,4-Dichloro-N-(4-(2-(piperidin-2-yl)ethyl)phenyl)benzamide hydrochloride] | 0.0253 µM | 0.001 µM |  | 
O=C(Nc1ccc(C2CCCNC2)cc1)c1ccc(OCC(F)(F)F)nc1 (racemic) [Example 178, (RS)—N-(4-(Piperidin-3-yl)phenyl)-6-(2,2,2-trifluoroethoxy)nicotinamide hydrochloride] | 0.0032 µM | 0.002 µM |  | 
Cc1ccc(C(=O)Nc2ccc(C3CCNC3)cc2)cc1 (racemic) [Example 182, (RS)-4-Methyl-N-(4-(pyrrolidin-3-yl)phenyl)benzamide hydrochloride] |  | 0.0025 µM | 0.0253 µM | 
COc1ccc(C(=O)Nc2ccc(C3CCCNC3)cc2)cc1 (racemic) [Example 186, (RS)-4-Methoxy-N-(4-(piperidin-3-yl)phenyl)benzamide hydrochloride] | 0.0486 µM | 0.0027 µM |  | 
O=C(Nc1ccc(C2CNCCO2)cc1)c1ccccc1 (racemic) [Example 188, (RS)—N-(4-(Morpholin-2-yl)phenyl)benzamide hydrochloride] | 0.138 µM |  |  | 0.0055 µM
O=C(Nc1ccc(C2CNCCO2)cc1)c1ccc(OCc2ccccc2)cc1 (racemic) [Example 192, (RS)-4-(benzyloxy)-N-(4-(morpholin-2-yl)phenyl)benzamide hydrochloride] | 0.0052 µM | 0.0113 µM |  | 
O=C(Nc1ccc(C2CNCCO2)cc1)c1ccc(Cl)nc1 (racemic) [Example 193, (RS)-6-chloro-N-(4-(morpholin-2-yl)phenyl)nicotinamide hydrochloride] | 0.0406 µM |  |  | 0.0034 µM
CCOc1ccc(C(=O)Nc2ccc(C3CNCCO3)cc2)cc1 (racemic) [Example 197, (RS)-4-Ethoxy-N-(4-(morpholin-2-yl)phenyl)benzamide hydrochloride] | 0.0177 µM |  |  | 0.0016 µM
O=C(Nc1ccc(C2CNCCO2)cc1)c1cccc(Cl)c1 (racemic) [Example 209, (RS)-3-chloro-N-(4-(morpholin-2-yl)phenyl)benzamide hydrochloride] | 0.0078 µM | 0.0016 µM |  | 
COC(=O)c1ccc(Oc2ccc(C(=O)Nc3ccc(C4CNCCO4)cc3)cc2)cc1Cl (racemic) [Example 213, (RS)-Methyl 2-chloro-4-(4-(4-(morpholin-2-yl)phenylcarbamoyl)phenoxy)benzoate hydrochloride] | 0.0012 µM | 0.001 µM |  | 
O=C(Nc1ccc(C2CNCCO2)cc1)c1ccc(OCC2CC2)cc1 (racemic) [Example 214, (RS)-4-Cyclopropylmethoxy-N-(4-morpholin-2-yl-phenyl)-benzamide hydrochloride] |  | 0.0016 µM | 0.0057 µM | 
O=C(Nc1ccc(C2CNCCO2)cc1)c1ccc(Oc2ccc(C(=O)O)c(Cl)c2)cc1 (racemic) [Example 215, (RS)-2-Chloro-4-(4-(4-(morpholin-2-yl)phenylcarbamoyl)phenoxy)benzoic acid hydrochloride] | 2.82 µM | 2.31 µM |  | 
